# Laboratory results reported in patent US9585876B2 (NuSirt Sciences, Inc., priority 2013, dated 2017).
# Key:
# [1] = system: LDL receptor knockout (LDLRKO) mice; assay: Plasma total cholesterol, cholesterol esters and triglycerides in LDLRKO mice on western diet, 28 days (Example 7); type: in vivo
# Experimental: The mice were provided free access to an atherogenic western diet (WD) containing 0.21% cholesterol (by weight) and 40% calories from fat and water for 4 weeks prior to treatment. […] The treatments were administered for 28 days continuously.
# Blood samples of the mice in all groups were obtained from tails of the mice at day 28 after the administration. The serum/plasma levels of triglyceride, total cholesterol and cholesterol esters were measured.
# [2] = system: C. elegans; assay: Lifespan of C. elegans (Example 8); type: in vivo, Caenorhabditis elegans; conditions: leucine (0.5 mM) or nicotinic acid (10 nM), each alone
# Experimental: Eggs were hatched on a starved plate overnight. […] To study lifespan, 50 young adult worms were placed on NGM agar plates seeded with E. coli strain OP-50 (=day 1 of study). All treatments were added with the indicated concentrations to the agar plates. […] The worms were maintained at 21° C. throughout the duration of the study. Worms were transferred to new plates daily to eliminate progeny. […] The study was continued until the last animal was dead. Data were analyzed via Kaplan-Meier survival curves using Prism 6 (GraphPad Software) and statistical significance was determined by the Log-rank (Mantel-Cox) test.
# [3] = oral dosing of about 3,000 mg; cited from earlier work
# [4] = system: Patients that are pre-diagnosed with hyperlipidemia; assay: Lipid levels and cutaneous vasodilation in hyperlipidemia patients, 60 days (Example 5); type: in vivo, human; conditions: for HDL level compared to day 0 values / triglyceride, LDL and cholesterol levels compared to day 0 values: orally twice a day, 60 days
# Experimental: Patients that are pre-diagnosed with hyperlipidemia are admitted for the randomized and double blind study. […] The treatments are administered orally twice a day, for 60 days continuously.
# Blood samples of the patients in all groups are obtained from at day 0, 30 and 60 after the administration. The serum/plasma levels of triglyceride, cholesterol, LDL and HDL are measured. Cutaneous vasodilation is measured by laser-Doppler flowmeter and the discomfort level described by the patients.
# [5] = system: AMPK; conditions: 3T3-L1 adipocytes; concentrations of nicotinic acid <100 nM alone
# Experimental: 3T3-L1 preadipocytes (American Type Culture Collection) were plated at a density of 8000 cells/cm2 (10 cm2 dish) and grown in Dulbecco's modified eagle's medium (DMEM) containing 10% fetal bovine serum (FBS), and antibiotics (growth medium) at 37° C. in 5% CO2. […] Preadipocytes were maintained in this differentiation medium for 3 days and subsequently cultured in growth medium. Cultures were re-fed every 2-3 days to allow >90% cells to reach fully differentiation before conducting chemical treatment.
# Western blotting was performed with antibodies against AMPK and Phospho-AMPKα (Thr172) obtained from Cell Signaling (Danvers, Mass.). […] Total 30 μg of protein from the cell lysate was resolved on 10% Tris/HCL polyacrylamide gels (Criterion precast gel, Bio-Rad Laboratories, Hercules, Calif.), transferred to PVDF membranes, incubated in blocking buffer (3% BSA in TBS), incubated with primary antibody (P-AMPK), washed and incubated with secondary horseradish peroxidase-conjugated antibody.
# [6] = system: LDL receptor knockout (LDLRKO) mice; assay: Lipid levels, atherosclerotic plaque and cutaneous vasodilation in LDLRKO mice on atherogenic diet, 60 days (Example 4); type: in vivo; conditions: for HDL level in the blood stream compared to negative control group (atherogenic diet only) / triglyceride, LDL and cholesterol levels in the blood stream compared to negative control group (atherogenic diet only): 60 days
# Experimental: All chemicals are purchased from Sigma.
# Cutaneous vasodilation is measured by laser-Doppler flowmeter.
# [7] = system: Sirt1; assay: Sirt1 level by Western blotting in C2C12 myotubes (Example 1)
# [8] = system: Patients that experience acute chest pain and are pre-diagnosed with hyperlipidemia; assay: Atherosclerotic plaque size by quantitative coronary angiography in patients, 3 years (Example 6); type: in vivo, human; conditions: orally twice a day, (a) 50 mg nicotinic acid alone, (b) 50 mg nicotinic acid + 1135 mg leucine, (c) 50 mg nicotinic acid + 1135 mg leucine + 50 mg resveratrol, (d) 1135 mg leucine + 50 mg resveratrol
# Experimental: The treatments are administered orally twice a day, for 3 years continuously. The size of atherosclerotic plaque is measured at day 0, months 6, 12, 18, 24, 30 and 36 by quantitative coronary angiography.
# [9] = group (e) 3000 mg nicotinic acid alone
# [10] = group (e) 10 g nicotinic acid/kg diet alone
smiles,measurement,setting,value
CC(C)C[C@H](N)C(=O)O [leucine],effect on cholesterol esters,[1]; leucine 24 g/kg diet alone,no independent effect
same,effect on total cholesterol,[1]; leucine 24 g/kg diet alone,no independent effect
same,effect on lifespan,[2],no independent effect
NC(=O)c1ccc[n+]([C@@H]2O[C@H](CO)[C@@H](O)[C@H]2O)c1 [nicotinamide riboside],circulating level of nicotinic acid or nicotinamide riboside in a subject,[3],about 10 μM
O=C(O)c1cccnc1 [nicotinic acid],decrease in cholesterol esters,"[1]; nicotinic acid 1,000 mg/kg diet, p<0.002",28%
same,decrease in total cholesterol,"[1]; nicotinic acid 1,000 mg/kg diet, p<0.01",20%
same,effect on lifespan,[2],no independent effect
same,cutaneous vasodilation compared to all the other groups including placebo,"[4]; 3000 mg of nicotinic acid alone, laser-Doppler flowmeter and discomfort level",significant higher
same,HDL level compared to day 0 values,"[4]; (a) 50 mg nicotinic acid alone, (b) 50 mg nicotinic acid + 1135 mg leucine, (c) 50 mg nicotinic acid + 1135 mg leucine + 50 mg resveratrol","similar, without statistically significant difference"
same,"triglyceride, LDL and cholesterol levels compared to day 0 values","[4]; (a) 50 mg nicotinic acid alone, (b) 50 mg nicotinic acid + 1135 mg leucine, (c) 50 mg nicotinic acid + 1135 mg leucine + 50 mg resveratrol, (d) 1135 mg leucine + 50 mg resveratrol","similar, without statistically significant difference"
same,HDL level compared to day 0 values,[4]; [9],significantly higher
same,"triglyceride, LDL and cholesterol levels compared to day 0 values",[4]; [9],significantly lower
same,"effect of nicotinic acid alone on the variable studied (P-AMPK/AMPK), dose-response study",[5],no effect
same,cutaneous vasodilation compared to all the other groups including control groups,"[6]; 10 g of nicotinic acid/kg diet alone, laser-Doppler flowmeter",significant higher
same,HDL level in the blood stream compared to negative control group (atherogenic diet only),[6]; [10],significantly higher
same,"triglyceride, LDL and cholesterol levels in the blood stream compared to negative control group (atherogenic diet only)",[6]; [10],significantly lower
same,HDL level in the blood stream compared to negative control group (atherogenic diet only),"[6]; per kg diet: (a) 250 mg nicotinic acid alone, (b) 250 mg nicotinic acid + 24 g leucine, (c) 50 mg nicotinic acid + 24 g leucine + 12.5 mg resveratrol","similar, without statistically significant difference"
same,"triglyceride, LDL and cholesterol levels in the blood stream compared to negative control group (atherogenic diet only)","[6]; per kg diet: (a) 250 mg nicotinic acid alone, (b) 250 mg nicotinic acid + 24 g leucine, (c) 50 mg nicotinic acid + 24 g leucine + 12.5 mg resveratrol, (d) 24 g leucine + 12.5 mg resveratrol","similar, without statistically significant difference"
same,atherosclerotic lesion size in the aorta,"[6]; day 60, group (e) 10 g nicotinic acid/kg diet alone",significantly reduced
same,atherosclerotic lesion size in the aorta,"[6]; day 60, per kg diet: (a) 250 mg nicotinic acid alone, (b) 250 mg nicotinic acid + 24 g leucine, (c) 50 mg nicotinic acid + 24 g leucine + 12.5 mg resveratrol, (d) 24 g leucine + 12.5 mg resveratrol",No significant reduction
same,Sirt1 levels,"[7]; 24 hours, nicotinic acid 10 nM, leucine 0.5 mM, nicotinic acid alone",did not have a significant effect
same,"effect of nicotinic acid alone on the variable studied (Sirt1), dose-response study",[7]; concentrations of nicotinic acid <100 nM alone,no effect
same,atherosclerotic plaque (lesion) size compared to day 0 values,[8],"similar, without statistically significant difference"
same,circulating level of nicotinic acid or nicotinamide riboside in a subject,[3],about 10 μM
